Patent US20250049735A1, “MEDICINE FOR STEATOHEPATITIS” (The University of Tokyo, priority 2021, published 2025)
Where two headings read alike, the source gives them in different places.

Legend:
[1] = target: T1, ATP8B1+CDC50A (Homo sapiens, UniProt O43520); test: Flippase (ATP8B1) assay: incorporation of NBD-phospholipids into CHO-K1 cells; type: cell-based; settings: 15° C.
T1 construct: expressed in transfected cells; host or cells: CHO-K1 cells (CCL-61, ATCC), transiently transfected with PEI MAX
T1 sequence (O43520 1-1251): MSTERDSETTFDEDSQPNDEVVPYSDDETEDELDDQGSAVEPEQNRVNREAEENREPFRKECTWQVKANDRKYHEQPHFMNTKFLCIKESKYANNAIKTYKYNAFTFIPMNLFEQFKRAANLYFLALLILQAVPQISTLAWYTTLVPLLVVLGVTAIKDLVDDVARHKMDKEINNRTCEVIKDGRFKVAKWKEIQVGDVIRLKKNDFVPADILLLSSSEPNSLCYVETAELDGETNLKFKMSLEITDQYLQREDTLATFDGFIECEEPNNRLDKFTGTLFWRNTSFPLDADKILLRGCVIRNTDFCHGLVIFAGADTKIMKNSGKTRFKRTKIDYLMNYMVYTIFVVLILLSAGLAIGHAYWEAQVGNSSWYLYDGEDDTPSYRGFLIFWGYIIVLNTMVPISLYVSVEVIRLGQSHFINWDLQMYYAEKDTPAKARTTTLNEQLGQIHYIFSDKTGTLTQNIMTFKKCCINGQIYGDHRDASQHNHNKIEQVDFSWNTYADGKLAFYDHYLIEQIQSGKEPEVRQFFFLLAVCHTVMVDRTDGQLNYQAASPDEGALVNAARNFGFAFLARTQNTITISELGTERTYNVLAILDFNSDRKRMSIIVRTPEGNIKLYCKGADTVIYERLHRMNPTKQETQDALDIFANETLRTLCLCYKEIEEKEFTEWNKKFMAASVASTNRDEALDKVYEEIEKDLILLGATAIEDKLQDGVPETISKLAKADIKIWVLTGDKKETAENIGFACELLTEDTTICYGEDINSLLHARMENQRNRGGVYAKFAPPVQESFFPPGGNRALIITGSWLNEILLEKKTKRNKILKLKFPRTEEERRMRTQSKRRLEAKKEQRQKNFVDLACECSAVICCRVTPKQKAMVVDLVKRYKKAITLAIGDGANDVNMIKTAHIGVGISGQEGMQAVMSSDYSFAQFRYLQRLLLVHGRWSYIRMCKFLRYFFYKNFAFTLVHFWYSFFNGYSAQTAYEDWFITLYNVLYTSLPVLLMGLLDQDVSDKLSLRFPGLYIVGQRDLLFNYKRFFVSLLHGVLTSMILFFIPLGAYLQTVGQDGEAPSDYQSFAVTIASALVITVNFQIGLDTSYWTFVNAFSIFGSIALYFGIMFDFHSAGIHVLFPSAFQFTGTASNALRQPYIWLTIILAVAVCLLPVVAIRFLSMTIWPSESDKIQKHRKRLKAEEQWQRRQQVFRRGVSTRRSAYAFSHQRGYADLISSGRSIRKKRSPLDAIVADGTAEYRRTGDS
T1 sequence (Q9NV96 1-361 partner): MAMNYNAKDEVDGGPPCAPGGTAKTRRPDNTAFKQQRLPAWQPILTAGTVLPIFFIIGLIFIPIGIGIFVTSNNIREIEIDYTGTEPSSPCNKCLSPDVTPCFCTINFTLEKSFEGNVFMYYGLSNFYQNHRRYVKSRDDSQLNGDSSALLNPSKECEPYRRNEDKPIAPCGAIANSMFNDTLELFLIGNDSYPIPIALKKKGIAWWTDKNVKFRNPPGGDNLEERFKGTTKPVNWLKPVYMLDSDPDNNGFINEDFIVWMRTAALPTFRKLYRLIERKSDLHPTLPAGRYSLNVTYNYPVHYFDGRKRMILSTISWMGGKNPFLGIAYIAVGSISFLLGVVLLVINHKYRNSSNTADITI
Description: The experiment regarding incorporation of NBD-phospholipids into cells was carried out according to the previous reports (Suzuki et al., Nature 468, 834-838 2010; Takatsu et al., J. Biol. Chem., 289:33543-33556 2014).
To allow CDC50A alone, or ATP8B1 and CDC50A, to express in CHO-K1 cells, the CHO-K1 cells (CCL-61, ATCC, Manassas, VA) were transfected with the plasmids (pShuttle-EV, or pShuttle-ATP8B1-FLAG and pShuttle-HA-CDC50A), using PEI MAX (Polysciences, Warrington, PA). Forty-eight hours after the transfection, the cells were detached from dishes and were collected in PBS containing 5 mM EDTA, and thereafter, the cells were recovered in a precipitate by centrifugation. The cells (2×10^6 cells/sample) were washed and were then equilibrated at 15° C. for 15 minutes in 500 μL of HBSS (14025092, Thermo Fisher Scientific). An equal volume of 1 μg/mL 18:1-06:0 NBD-PC (810132, Avanti Polar Lipids) or 10 μg/mL 12:0 LysoNBD-PC (810128P: Avanti Polar Lipids) was added to the cell suspension, and the obtained mixture was then incubated at 15° C. Thereafter, at each time point, 300 μL of a cell suspension was collected, and was mixed with 300 μl of HBSS (ice cold) containing 5% fatty acid-free BSA (A6003: Sigma-Aldrich) to extract NBD-lipids incorporated into the exoplasmic leaflet of the plasma membrane as well as unincorporated NBD-Lipids.
Next, 10,000 cells were analyzed with a BD FACSCelesta (BD Bioscience, San Jose, CA) to measure the fluorescence of NBD-lipids incorporated into the cytoplasmic leaflet of the plasma membrane. The mean value of the fluorescence intensities per cell was calculated. Propidium iodide (P378: DOJINDO, Kumamoto, Japan) positive cells were excluded from the analysis.

[2] = test system: Tax-iIEC-KO mice; settings: 8 to 10 weeks of age
Text: Atp8b1^flox/flox mice were mated with villin-Cre/ERT2 transgenic mice (Stock No. 020282; The Jackson Laboratory), and Atp8b1^flox/+; villin-Cre/ERT2 mice in the obtained offsprings were then mated with Atp8b1^flox/flox mice to obtain Tamoxifen-induced, intestinal epithelial cell (IEC)-specific Atp8b1 knockout (Atp8b1Tax-iIEC-KO: Atp8b1^flox/flox; villin-Cre/ERT2) mice (Atp8b1 Tax-iIEC-KO mice). The resulting Atp8b1 Tax-iIEC-KO mice and littermate Atp8b1^flox/flox mice were used for animal experiments.
ALT and AST were determined by automatic measurement with Dri-chem (FUJIFILM, Tokyo, Japan).
The concentrations of choline, betaine, dimethylglycine (N,N-dimethylglycine) and glycerophosphorylcholine (sn-glycero-3-phosphocholine) in plasma were determined by liquid chromatography/tandem mass spectrometry (LC/MS/MS) assay. The sample was mixed with 98-fold volume of ethanol and 1-fold volume of the internal standard (IS) solution (10 μmol/L choline in water, 10 μmol/L glycerophosphorylcholine in water, and 1 μmol/L betaine in water). After vortex mixing, the sample was centrifuged at 21,500×g at 4° C. for 5 minutes. The obtained supernatant was injected into a UHPLC Nexera liquid chromatography system (Shimadzu co., Kyoto, Japan) equipped with an Ascentis Express HILIC column (2.1×50 mm, 2.7 μm, Merck KGaA, Darmstadt, Germany), and was then maintained at 4° C. The analyte was separated from the internal standard by gradient elution of mobile phase A (10 mmol/L ammonium acetate in water) and of mobile phase B (acetonitrile/water mixture) (99:1, v/v)). The gradient elution was carried out under the following conditions: 0-2 min., 82.5% B; 2-4 min., 82.5% to 5% B and 4-7 min. 5% B with a flow rate of 0.6 mL/min. The eluate was directly subjected to electrospray ionization under a positive ion mode using a 5500QTRAP mass spectrometer (Sciex pte. ltd., Toronto, Canada). All target molecules were scanned by selected reaction monitoring (SRM) mode.
Eight-week-old Tax-iIEC-KO mice and control mice were started to be orally administered with a normal saline, or with 50 mg/kg, 150 mg/kg or 500 mg/kg chloride choline, three times a day, and at the same time, the Tax-iIEC-KO mice and the control mice were administered with 1 mg/day of Tamoxifen for 5 consecutive days. Oral administration with a normal saline, or with 50 mg/kg, 150 mg/kg or 500 mg/kg chloride choline, three times a day, was continued, and thereafter, the mice were dissected at 10 weeks of age. The doses of 150 mg/kg and 500 mg/kg were determined by estimating the amount of choline consumed by the 0.3% choline supplemented diet group and the 1% choline supplemented diet group based on the daily food intake of mice.

[3] = test system: Caco-2 cells; test: Cytotoxicity test (LDH release) in wild-type Caco-2 cells; settings: wild-type Caco-2 cell line; 24 hours; various concentrations
Description: (§1) Caco-2 cells were cultured in DMEM (Dulbecco's modified Eagle's medium) (11995-065, Thermo Fisher Scientific) supplemented with 10% fetal bovine serum (10437, Thermo Fisher Scientific), 1% nonessential amino acids (11140-050, Thermo Fisher Scientific), 1% penicillin and streptomycin (15140-122, Thermo Fisher Scientific). The cells were cultured under conditions of 37° C., 5% CO2 and a humidity of 95%.
(§2) 5 mM Edelfosine dissolved in ethanol (CAY-60912-10, Cayman), 10 mg/mL lysophosphatidylcholine (LysoPC) dissolved in water/ethanol (1:1, v/v) (123-03781, FUJIFILM Wako Pure Chemical), and 10 mg/mL lysophosphatidylethanolamine (LysoPE) (L4754, Sigma-Aldrich) dissolved in ethanol were prepared as stock solutions. Caco-2 cells and ATP8B1 KO Caco-2 cells were seeded on 96-well plates at a cell density of 50,000 cells/well, and were then cultured, while replacing the medium with a fresh medium every 2 days. After 7 days of the culture, the cells were cultured for 24 hours in a new medium supplemented with various concentrations of edelfosine, lysophosphatidylcholine and lysophosphatidylethanolamine. Cytotoxicity was measured using, as an indicator, the amount of lactate dehydrogenase (LDH) released from the injured cells into the medium. The amount of LDH in the medium was measured using the Cytotoxicity LDH Assay Kit-WST (CK12, Dojindo) according to the instructions included therewith.

[4] = test system: ATP8B1 KO Caco-2 cells; test: Cytotoxicity test (LDH release) in ATP8B1 KO Caco-2 cells; settings: ATP8B1 KO Caco-2 cell line; 24 hours; various concentrations
Description: as §1, §2

[5] = to such an extent that extension of autologous liver survival was expected; cited from earlier work
[6] = CHO-K1 cells expressing functional ATP8B1 (ATP8B1+CDC50A)
[7] = CHO-K1 cells without ATP8B1 expression (EV)
[8] = oral 50 mg/kg three times a day
[9] = oral 150 mg/kg three times a day
[10] = oral 500 mg/kg three times a day

18:1-06:0 NBD-PC
incorporation of NBD-lipid into the cells (flow cytometry) [1, 6]: incorporated into the cells
incorporation of NBD-lipid into the cells (flow cytometry) [1, 7]: incorporated into the cells in reduced amounts

C[N+](C)(C)CCOP(=O)([O-])OCC(O)COC(=O)CCCCCCCCCCCNc1ccc([N+](=O)[O-])c2nonc12 (stereo not shown) [NBD-LysoPC, 12:0 LysoNBD-PC]
incorporation of NBD-lipid into the cells (flow cytometry) [1, 6]: incorporated into the cells
incorporation of NBD-lipid into the cells (flow cytometry) [1, 7]: incorporated into the cells in reduced amounts

C[N+](C)(C)CCO.[Cl-] [chloride choline]
body weight loss of the Tax-iIEC-KO mice [2, 8]: suppression
concentration of betaine in the liver [2, 8]: recovered up to the same level as those in the control mice
concentration of choline in the liver [2, 8]: recovered up to the same level as those in the control mice
liver injury markers (AST and ALT) [2, 8]: normalization
body weight loss of the Tax-iIEC-KO mice [2, 9]: suppression
concentration of betaine in the liver [2, 9]: recovered up to the same level as those in the control mice
concentration of choline in the liver [2, 9]: recovered up to the same level as those in the control mice
liver injury markers (AST and ALT) [2, 9]: normalization
body weight loss of the Tax-iIEC-KO mice [2, 10]: suppression
concentration of betaine in the liver [2, 10]: recovered up to the same level as those in the control mice
concentration of choline in the liver [2, 10]: recovered up to the same level as those in the control mice
liver injury markers (AST and ALT) [2, 10]: normalization

lysophosphatidylcholine [LPC]
cytotoxicity (LDH released into the medium) [3]: did not cause significant cytotoxicity
cytotoxicity (LDH released into the medium) [4]: increased cytotoxicity in a dose-dependent manner

sodium phenylbutyrate
therapeutic effects on PFIC1 [5]: did not exhibit therapeutic effects on PFIC1
